Measured values taken from publication PMC12301332, “Biased antagonism of a series of bicyclic CXCR2 intracellular allosteric modulators” (Frontiers in Pharmacology, 2025).

target: T1, CXCR2 (Homo sapiens, UniProt P25025); assay: NanoBRET β-arrestin1 recruitment inhibition assay (NanoLux) in HEK293A cells; format: cell-based; settings: CXCL1 at EC80; mean, n = 3; read-out: IC50 βarr1
T1 construct: expressed in transfected cells
T1 sequence (P25025 1-360): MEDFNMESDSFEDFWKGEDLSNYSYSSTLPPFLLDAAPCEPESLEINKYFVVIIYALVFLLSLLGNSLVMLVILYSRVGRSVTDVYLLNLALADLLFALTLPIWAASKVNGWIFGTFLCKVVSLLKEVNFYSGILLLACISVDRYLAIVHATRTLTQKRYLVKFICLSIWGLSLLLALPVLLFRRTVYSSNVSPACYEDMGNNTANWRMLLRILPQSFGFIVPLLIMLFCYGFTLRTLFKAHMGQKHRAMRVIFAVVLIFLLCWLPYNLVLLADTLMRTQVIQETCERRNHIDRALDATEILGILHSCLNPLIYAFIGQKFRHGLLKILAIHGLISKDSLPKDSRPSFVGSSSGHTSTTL
Protocol: Cells were trypsinized and resuspended at 3 × 10^5 cell/mL in the growth medium, whereafter they were incubated for 2 hours at RT. Cells were transfected in suspension using FuGENE® HD Transfection Reagent at a 3:1 reagent to DNA ratio in Opti-MEMTM I Reduced-Serum Medium, with the final DNA concentration of 1 μg/μL. The transfection mixture was incubated for 10 min at RT before adding it to the cell suspension. Transfected cells were seeded at 3.0 × 10^4 cells/well in a white, clear, flat-bottom 96-well plate coated with 100 μg/mL poly-D-lysin ([…], Sigma Aldrich) and incubated for 48 h at 37°C and 5% CO2. HEK293A cells were transiently co-transfected with plasmids encoding β-arrestin1 protein tagged with NLuc (donor) and CXCR2 protein tagged with mNeonGreen (mNG) acceptor in a 1:10 donor to acceptor ratio, as described previously ([Luís et al., 2022]). All subsequent steps are identical to those in “NanoBRET-based G protein activation inhibition assay,” which are described above. Measurements were acquired using a 440- to 480-nm donor emission filter (#0200-6179, Molecular Devices) and a 515- to 575-nm acceptor emission filter (#0200-6203, Molecular Devices) BRET ratios were extracted from ScreenWorks software (Molecular Devices) and represent the ratio between the acceptor emission of […]2 or mNG (G protein or β-arrestin recruitment, respectively) and NLuc donor emission. The basal BRET ratio was defined as the average BRET ratio of the five consecutive readings preceding ligand addition. Changes in BRET values post ligand administration (ΔBRET) were calculated for each well as a percentage difference to the previously defined basal BRET ratio. Average ΔBRET values were baseline corrected by subtracting the average negative control BRET ratio (unstimulated condition). […] AUCs were normalized to the positive control (stimulated condition); whereafter, dose-response curves were fitted to log (inhibitor) vs response (three parameters) in GraphPad 10.2.0 (GraphPad Software). […] Calculation 1: calculation of the BRET signal. • 1. […] NC correctedΔBRET=Δ[…]. • 4. a. Neg AUC of NC correctedΔBRET=Gα activation read out. b. Pos AUC of NC correctedΔBRET=β-arrestin recruitment.

IC50 | Molecule
2130 ± 340 nM | CCCC(C)CSc1nc(NC(C)CO)c2nn[nH]c2n1 (centres unmarked) [MVH-82]

same assay, conditions: CXCL1 at EC80; normalized to Imax of navarixin = 100%; n = 3

Imax βarr1 (maximum observed inhibitory effect) | Molecule
97.29 ± 1.61% | CCCC(C)CSc1nc(NC(C)CO)c2nn[nH]c2n1 (centres unmarked) [MVH-82]
100% | CC(CO)Nc1nc(SCc2cccc(F)c2F)nc2nc(N)sc12 (centres unmarked) [MVH-23]

same assay, conditions: CXCL2 at EC80; mean, n = 3; read-out: IC50 βarr1

IC50 | Molecule
740 ± 160 nM | CCCC(C)CSc1nc(NC(C)CO)c2nn[nH]c2n1 (centres unmarked) [MVH-82]

same assay, conditions: CXCL2 at EC80; normalized to Imax of navarixin = 100%; n = 3

Imax βarr1 (maximum observed inhibitory effect) | Molecule
96.96 ± 5.75% | CCCC(C)CSc1nc(NC(C)CO)c2nn[nH]c2n1 (centres unmarked) [MVH-82]
100% | CC(CO)Nc1nc(SCc2cccc(F)c2F)nc2nc(N)sc12 (centres unmarked) [MVH-23]

same assay, conditions: CXCL3 at EC80; mean, n = 3; read-out: IC50 βarr1

IC50 | Molecule
2530 ± 150 nM | CCCC(C)CSc1nc(NC(C)CO)c2nn[nH]c2n1 (centres unmarked) [MVH-82]

same assay, conditions: CXCL3 at EC80; normalized to Imax of navarixin = 100%; n = 3

Imax βarr1 (maximum observed inhibitory effect) | Molecule
100% | CCCC(C)CSc1nc(NC(C)CO)c2nn[nH]c2n1 (centres unmarked) [MVH-82]
100% | CC(CO)Nc1nc(SCc2cccc(F)c2F)nc2nc(N)sc12 (centres unmarked) [MVH-23]

same assay, conditions: CXCL5 at EC80; mean, n = 3; read-out: IC50 βarr1

IC50 | Molecule
1330 ± 470 nM | CCCC(C)CSc1nc(NC(C)CO)c2nn[nH]c2n1 (centres unmarked) [MVH-82]

same assay, conditions: CXCL5 at EC80; normalized to Imax of navarixin = 100%; n = 3

Imax βarr1 (maximum observed inhibitory effect) | Molecule
100% | CCCC(C)CSc1nc(NC(C)CO)c2nn[nH]c2n1 (centres unmarked) [MVH-82]
100% | CC(CO)Nc1nc(SCc2cccc(F)c2F)nc2nc(N)sc12 (centres unmarked) [MVH-23]

same assay, conditions: CXCL6 at EC80; mean, n = 3; read-out: IC50 βarr1

IC50 | Molecule
880 ± 470 nM | CCCC(C)CSc1nc(NC(C)CO)c2nn[nH]c2n1 (centres unmarked) [MVH-82]

same assay, conditions: CXCL6 at EC80; normalized to Imax of navarixin = 100%; n = 3

Imax βarr1 (maximum observed inhibitory effect) | Molecule
100% | CCCC(C)CSc1nc(NC(C)CO)c2nn[nH]c2n1 (centres unmarked) [MVH-82]
100% | CC(CO)Nc1nc(SCc2cccc(F)c2F)nc2nc(N)sc12 (centres unmarked) [MVH-23]

same assay, conditions: CXCL7 at EC80; mean, n = 3; read-out: IC50 βarr1

IC50 | Molecule
370 ± 110 nM | CCCC(C)CSc1nc(NC(C)CO)c2nn[nH]c2n1 (centres unmarked) [MVH-82]

same assay, conditions: CXCL7 at EC80; normalized to Imax of navarixin = 100%; n = 3

Imax βarr1 (maximum observed inhibitory effect) | Molecule
98.49 ± 1.76% | CCCC(C)CSc1nc(NC(C)CO)c2nn[nH]c2n1 (centres unmarked) [MVH-82]
100% | CC(CO)Nc1nc(SCc2cccc(F)c2F)nc2nc(N)sc12 (centres unmarked) [MVH-23]

same assay, conditions: CXCL8 at EC80; mean, n = 3; read-out: IC50 βarr1

IC50 | Molecule
2320 ± 720 nM | CCCC(C)CSc1nc(NC(C)CO)c2nn[nH]c2n1 (centres unmarked) [MVH-82]

same assay, conditions: CXCL8 at EC80; normalized to Imax of navarixin = 100%; n = 3

Imax βarr1 (maximum observed inhibitory effect) | Molecule
100% | CCCC(C)CSc1nc(NC(C)CO)c2nn[nH]c2n1 (centres unmarked) [MVH-82]
100% | CC(CO)Nc1nc(SCc2cccc(F)c2F)nc2nc(N)sc12 (centres unmarked) [MVH-23]

target: T1, CXCR2; assay: NanoBRET-based G protein activation inhibition assay (REGA-SIGN Gαi1 dissociation) in HEK293A.CXCR2 cells; format: cell-based; settings: CXCL1 at EC80; mean, n = 3
Protocol: Cells were trypsinized and resuspended at 3 × 10^5 cell/mL in the growth medium, whereafter they were incubated for 2 hours at RT. Cells were transfected in suspension using FuGENE® HD Transfection Reagent at a 3:1 reagent to DNA ratio in Opti-MEMTM I Reduced-Serum Medium, with the final DNA concentration of 1 μg/μL. The transfection mixture was incubated for 10 min at RT before adding it to the cell suspension. Transfected cells were seeded at 3.0 × 10^4 cells/well in a white, clear, flat-bottom 96-well plate coated with 100 μg/mL poly-D-lysin ([…], Sigma Aldrich) and incubated for 48 h at 37°C and 5% CO2. […] (2023)]. Following the 48-h incubation period, cells were washed with the assay buffer. Compounds were serially diluted in 1:500 Nano-Glo® Vivazine^TM working solution (#N2581, Promega), and 90 μL of compound/Vivazine mix was added, followed by incubation for 45 min at 37°C and 5% CO2. Plates were transferred to the FLIPR Penta system (Molecular Devices) at 37°C, and all steps onward are automated and performed by the FLIPR Penta system. After a 10-min equilibration period, the baseline BRET signal was determined by five consecutive reads followed by automatic administration of 10 μL of 10× ligand (Table 1) to the cell plate. Changes in the BRET signal was measured for 10 min, with each read spaced by 2.5 s. […] BRET ratios were extracted from ScreenWorks software (Molecular Devices) and represent the ratio between the acceptor emission of […]2 or mNG (G protein or β-arrestin recruitment, respectively) and NLuc donor emission. The basal BRET ratio was defined as the average BRET ratio of the five consecutive readings preceding ligand addition. Changes in BRET values post ligand administration (ΔBRET) were calculated for each well as a percentage difference to the previously defined basal BRET ratio. Average ΔBRET values were baseline corrected by subtracting the average negative control BRET ratio (unstimulated condition). […] AUCs were normalized to the positive control (stimulated condition); whereafter, dose-response curves were fitted to log (inhibitor) vs response (three parameters) in GraphPad 10.2.0 (GraphPad Software). […] Calculation 1: calculation of the BRET signal. • 1. […] NC correctedΔBRET=Δ[…]. • 4. a. Neg AUC of NC correctedΔBRET=Gα activation read out. b. Pos AUC of NC correctedΔBRET=β-arrestin recruitment.

IC50 | Molecule
> 15000 nM | CCCC(C)CSc1nc(NC(C)CO)c2nn[nH]c2n1 (centres unmarked) [MVH-82]

same assay, conditions: CXCL1 at EC80; normalized to Imax of navarixin = 100%; n = 3

Imax Gαi1 (maximum observed inhibitory effect) | Molecule
<50% | CCCC(C)CSc1nc(NC(C)CO)c2nn[nH]c2n1 (centres unmarked) [MVH-82]
94.85 ± 3.70% | CC(CO)Nc1nc(SCc2cccc(F)c2F)nc2nc(N)sc12 (centres unmarked) [MVH-23]

same assay, conditions: CXCL2 at EC80; mean, n = 3

IC50 | Molecule
> 15000 nM | CCCC(C)CSc1nc(NC(C)CO)c2nn[nH]c2n1 (centres unmarked) [MVH-82]

same assay, conditions: CXCL2 at EC80; normalized to Imax of navarixin = 100%; n = 3

Imax Gαi1 (maximum observed inhibitory effect) | Molecule
<50% | CCCC(C)CSc1nc(NC(C)CO)c2nn[nH]c2n1 (centres unmarked) [MVH-82]
100% | CC(CO)Nc1nc(SCc2cccc(F)c2F)nc2nc(N)sc12 (centres unmarked) [MVH-23]

same assay, conditions: CXCL3 at EC80; mean, n = 3

IC50 | Molecule
> 15000 nM | CCCC(C)CSc1nc(NC(C)CO)c2nn[nH]c2n1 (centres unmarked) [MVH-82]

same assay, conditions: CXCL3 at EC80; normalized to Imax of navarixin = 100%; n = 3

Imax Gαi1 (maximum observed inhibitory effect) | Molecule
<50% | CCCC(C)CSc1nc(NC(C)CO)c2nn[nH]c2n1 (centres unmarked) [MVH-82]
100% | CC(CO)Nc1nc(SCc2cccc(F)c2F)nc2nc(N)sc12 (centres unmarked) [MVH-23]

same assay, conditions: CXCL5 at EC80; mean, n = 3

IC50 | Molecule
> 15000 nM | CCCC(C)CSc1nc(NC(C)CO)c2nn[nH]c2n1 (centres unmarked) [MVH-82]

same assay, conditions: CXCL5 at EC80; normalized to Imax of navarixin = 100%; n = 3

Imax Gαi1 (maximum observed inhibitory effect) | Molecule
<50% | CCCC(C)CSc1nc(NC(C)CO)c2nn[nH]c2n1 (centres unmarked) [MVH-82]
94.29 ± 2.32% | CC(CO)Nc1nc(SCc2cccc(F)c2F)nc2nc(N)sc12 (centres unmarked) [MVH-23]

same assay, conditions: CXCL6 at EC80; mean, n = 3

IC50 | Molecule
> 15000 nM | CCCC(C)CSc1nc(NC(C)CO)c2nn[nH]c2n1 (centres unmarked) [MVH-82]

same assay, conditions: CXCL6 at EC80; normalized to Imax of navarixin = 100%; n = 3

Imax Gαi1 (maximum observed inhibitory effect) | Molecule
<50% | CCCC(C)CSc1nc(NC(C)CO)c2nn[nH]c2n1 (centres unmarked) [MVH-82]
100% | CC(CO)Nc1nc(SCc2cccc(F)c2F)nc2nc(N)sc12 (centres unmarked) [MVH-23]

same assay, conditions: CXCL7 at EC80; mean, n = 3

IC50 | Molecule
> 15000 nM | CCCC(C)CSc1nc(NC(C)CO)c2nn[nH]c2n1 (centres unmarked) [MVH-82]

same assay, conditions: CXCL7 at EC80; normalized to Imax of navarixin = 100%; n = 3

Imax Gαi1 (maximum observed inhibitory effect) | Molecule
<50% | CCCC(C)CSc1nc(NC(C)CO)c2nn[nH]c2n1 (centres unmarked) [MVH-82]
100% | CC(CO)Nc1nc(SCc2cccc(F)c2F)nc2nc(N)sc12 (centres unmarked) [MVH-23]

same assay, conditions: CXCL8 at EC80; mean, n = 3

IC50 | Molecule
> 15000 nM | CCCC(C)CSc1nc(NC(C)CO)c2nn[nH]c2n1 (centres unmarked) [MVH-82]

same assay, conditions: CXCL8 at EC80; normalized to Imax of navarixin = 100%; n = 3

Imax Gαi1 (maximum observed inhibitory effect) | Molecule
<50% | CCCC(C)CSc1nc(NC(C)CO)c2nn[nH]c2n1 (centres unmarked) [MVH-82]
100% | CC(CO)Nc1nc(SCc2cccc(F)c2F)nc2nc(N)sc12 (centres unmarked) [MVH-23]

target: T1, CXCR2; assay: not given; design: method as in Boon et al., 2024; settings: agonist concentration used in NanoBRET assays; ref Boon et al., 2024; cited from earlier work

Molecule | β-arrestin EC80
CXCL2: recombinant human ELR+ chemokine, CXCR2 ligand (PeproTech) | 147.8 nM

target: T1, CXCR2; assay: not given; design: method as in Boon et al., 2024; settings: agonist concentration used in NanoBRET assays; ref Boon et al., 2024; cited from earlier work; remark: another data set of the same source

Molecule | G-protein EC80
CXCL2: recombinant human ELR+ chemokine, CXCR2 ligand (PeproTech) | 2.15 nM
